Data on 4 compounds can be found in paper PMC5309245, “Discovery and Characterization of Diazenylaryl Sulfonic Acids as Inhibitors of Viral and Bacterial Neuraminidases” (Frontiers in Microbiology, 2017).

The target of data set [1] is IAV HK/68 NA (whole virus) (Influenza A virus, UniProt Q91MA2). The experiment in a line: biochemical. Set-up: species or system influenza A virus A/Hong Kong/68 (H3N2).
The subject of data set [2] is influenza A virus WSN/33. The experiment in a line: microbe, parasite or virus in culture. The class given is cell-based, influenza A virus A/WSN/1933 (H1N1).
The target of data set [3] is T1, S. pneumoniae DSM20566 NA (Streptococcus pneumoniae, UniProt P62575).
T1 construct: host or cells: either rNanA from E. coli BL21(DE3) or total precipitated protein of S. pneumoniae DSM20566
T1 sequence (P62575 54-1035): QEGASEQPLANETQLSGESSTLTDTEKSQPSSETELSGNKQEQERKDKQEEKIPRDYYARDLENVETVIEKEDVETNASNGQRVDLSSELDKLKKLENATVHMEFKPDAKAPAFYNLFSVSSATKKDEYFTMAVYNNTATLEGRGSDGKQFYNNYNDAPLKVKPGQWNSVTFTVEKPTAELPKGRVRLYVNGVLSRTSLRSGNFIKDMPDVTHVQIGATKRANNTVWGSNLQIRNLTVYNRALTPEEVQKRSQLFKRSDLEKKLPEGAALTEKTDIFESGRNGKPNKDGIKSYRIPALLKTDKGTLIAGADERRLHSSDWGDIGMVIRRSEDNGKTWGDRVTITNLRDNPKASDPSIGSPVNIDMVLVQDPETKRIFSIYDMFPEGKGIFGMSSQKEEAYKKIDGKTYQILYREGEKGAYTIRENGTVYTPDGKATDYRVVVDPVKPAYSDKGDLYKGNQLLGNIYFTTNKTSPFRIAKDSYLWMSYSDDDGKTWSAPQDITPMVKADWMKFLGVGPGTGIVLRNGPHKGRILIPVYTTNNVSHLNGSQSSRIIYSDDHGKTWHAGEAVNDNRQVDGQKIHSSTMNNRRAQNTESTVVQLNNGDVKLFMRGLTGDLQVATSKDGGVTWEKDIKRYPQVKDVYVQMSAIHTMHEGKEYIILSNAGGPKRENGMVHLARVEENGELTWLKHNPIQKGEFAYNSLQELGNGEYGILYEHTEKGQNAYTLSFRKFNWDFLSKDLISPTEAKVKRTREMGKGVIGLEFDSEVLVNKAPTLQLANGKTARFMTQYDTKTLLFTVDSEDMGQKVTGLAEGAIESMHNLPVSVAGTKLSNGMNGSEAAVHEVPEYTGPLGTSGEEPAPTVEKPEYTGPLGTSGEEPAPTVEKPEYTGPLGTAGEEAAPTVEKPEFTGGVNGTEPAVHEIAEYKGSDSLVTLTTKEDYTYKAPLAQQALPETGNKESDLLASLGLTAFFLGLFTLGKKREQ
In words: HA-based NA inhibition assay, S. pneumoniae DSM20566. The class given is cell-based. Conditions: human erythrocytes.

The target of data set [4] is IAV WSN/33 NA-wt (whole virus) (Influenza A virus, UniProt P03470). The experiment in a line: biochemical. On the set-up: species or system influenza A virus A/WSN/1933 (H1N1). The conditions noted are these: for IC50: NA inhibition using FL assay IC50, IAV WSN/33.
Sequence of IAV WSN/33 NA-wt (whole virus) (P03470 whole entry, looked up): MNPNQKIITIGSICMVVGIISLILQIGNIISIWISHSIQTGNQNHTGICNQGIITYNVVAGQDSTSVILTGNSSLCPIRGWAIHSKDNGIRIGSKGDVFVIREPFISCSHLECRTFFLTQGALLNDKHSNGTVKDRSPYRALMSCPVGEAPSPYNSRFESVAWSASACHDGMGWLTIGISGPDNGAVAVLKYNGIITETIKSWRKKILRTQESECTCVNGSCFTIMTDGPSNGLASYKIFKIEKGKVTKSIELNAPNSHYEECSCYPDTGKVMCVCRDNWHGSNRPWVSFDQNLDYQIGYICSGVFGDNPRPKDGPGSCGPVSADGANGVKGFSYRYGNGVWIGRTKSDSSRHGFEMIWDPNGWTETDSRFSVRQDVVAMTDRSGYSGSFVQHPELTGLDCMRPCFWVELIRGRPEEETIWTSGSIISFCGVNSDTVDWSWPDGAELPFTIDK
The subject of data set [5] is influenza A virus 8178/09. In words: microbe, parasite or virus in culture. The class given is cell-based, influenza A virus A/Jena/8178/2009 (H1N1).
The target of data set [6] is T2, S. pneumoniae DSM20566 NA (NanA) (Streptococcus pneumoniae, UniProt P62575).
T2 construct: host or cells: either rNanA from E. coli BL21(DE3) or total precipitated protein of S. pneumoniae DSM20566
T2 sequence (P62575 54-1035): as the sequence (P62575 54-1035) above
The experiment in a line: FL NA inhibition assay, S. pneumoniae DSM20566. It is filed as biochemical. Conditions: MUNANA substrate; read-out: NA inhibition using FL assay IC50, S. p. DSM20566.

Data set [7] is described as follows: in vitro. The conditions noted are these: dog.
The test system of data set [8] is human erythrocytes. It is filed as cell-based. Conditions: human erythrocytes, 4 h at 37°C and 12 h at 4°C. The procedure:
(§1) Viral (whole virus) and bacterial NA activity as well as their inhibition were measured by using a fluorescence (FL) assay with the substrate 2′-(4-methylumbelliferyl)-α-D-N-acetylneuraminic acid sodium salt hydrate (MUNANA, 100 μM; Sigma-Aldrich GmbH, Taufkirchen, Germany), and/or a hemagglutination (HA)-based NA inhibition assay (HA assay) with human erythrocytes (Institute of Transfusion Medicine, University Hospital Jena, Jena, Germany), both assays as published recently (Richter et al., [2015]). Recombinant NanA (rNanA) and total precipitated bacterial protein of S. pneumoniae DSM20566 were used in FL and HA assays. Interference of the compounds with the FL signal (self-fluorescence and quenching) was excluded as described previously (Richter et al., [2015]). […] Each compound was tested at least three times in both NA inhibition assays.
Supplementary Table 1. […]
eTest compounds lysed the human erythrocytes (4 h at 37°C and 12 h at 4°C).

Data set [9] has as its system S. pneumoniae DSM20566 biofilm. The experiment in a line: Biofilm inhibition assay. The class given is cell-based, Streptococcus pneumoniae DSM20566.
Data set [10] concerns human erythrocytes. The class given is cell-based. Conditions: human erythrocytes, 2 h at 4°C. The procedure:
as §1
Supplementary Table 1. Assay interference phenomena of test compounds in the HA-based […]
sample concentrations [µM] in viral HA-assay bacterial HA-assay […]
hem- prevention of erythrocyte hem- erythrocyte agglutinationa virus-induced lysisc agglutinationd lysise […]
cTest compounds lysed the human erythrocytes (2 h at 4°C). […]

For data set [11], the system named is IAV 5258/09 NA. In words: Hemagglutination (HA)-based NA inhibition assay, IAV 5258/09. The conditions noted are these: human erythrocytes. The class given is cell-based, influenza A virus A/Jena/5258/2009 (H1N1).
Data set [12] deals with influenza A virus HK/68. In words: microbe, parasite or virus in culture. It is filed as cell-based, influenza A virus A/Hong Kong/68 (H3N2).
For data set [13], the system named is S. pneumoniae DSM20566. The experiment in a line: Microtiter broth microdilution assay, planktonic growth. The conditions noted are these: 18 h, maximum 50 μM. It is filed as cell-based, Streptococcus pneumoniae DSM20566. A general note: Broth dilution looks for growth in wells or tubes with falling amounts of substance.

Sequence of IAV HK/68 NA (whole virus) (Q91MA2 whole entry, looked up): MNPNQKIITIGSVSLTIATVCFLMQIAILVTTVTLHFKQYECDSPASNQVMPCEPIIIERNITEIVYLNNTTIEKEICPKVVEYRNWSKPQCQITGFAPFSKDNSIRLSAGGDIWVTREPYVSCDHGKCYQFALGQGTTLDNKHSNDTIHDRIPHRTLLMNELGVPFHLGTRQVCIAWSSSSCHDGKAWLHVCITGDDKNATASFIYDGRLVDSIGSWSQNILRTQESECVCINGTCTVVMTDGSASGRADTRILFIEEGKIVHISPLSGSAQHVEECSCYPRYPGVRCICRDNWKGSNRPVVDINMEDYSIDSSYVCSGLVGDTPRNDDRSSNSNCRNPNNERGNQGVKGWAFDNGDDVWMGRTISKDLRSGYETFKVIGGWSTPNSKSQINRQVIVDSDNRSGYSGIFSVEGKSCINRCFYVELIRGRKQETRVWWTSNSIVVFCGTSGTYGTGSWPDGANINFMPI

Turning to `O=S(=O)(O)c1cc(S(=O)(=O)O)c2c(/N=N/c3cccc4ccccc34)c(O)ccc2c1` [Compound 16], the “NA inhibition using FL assay IC50, IAV HK/68” value (“NA inhibition … IAV HK/68” below) in [1] was “Not active”. Besides, in data set [2], the “50% inhibitory concentration, influenza A virus WSN/33” value is “Not active”. In data set [3], the “NA inhibition using HA assay MIC, S. p. DSM20566” value (shortened to “NA inhibition … S. p. DSM20566”) worked out at 24.40 ± 12.47 µM. Further, the IC50 in data set [4] came out at 44.3 ± 2.38 µM; in data set [6] it was 7.68 ± 0.98 µM; in data set [13] (Streptococcus pneumoniae, DSM20566, read-out: 50% inhibitory concentration, S. pneumoniae DSM20566 planktonic growth), 12 ± 6.81 µM. Further, the “50% inhibitory concentration, influenza A virus 8178/09” value in [5] is listed as “Not active”. Besides, the CC50 in data set [7] is over 100 µM. For the same compound, the “sample concentrations provoking erythrocyte lysis, bacterial HA-assay” value in data set [8] is given as “no”. The inhibition at 50 µM in data set [9] (Streptococcus pneumoniae, DSM20566, 50 μM, read-out: Inhibition of biofilm formation at the maximum tested concentration) worked out at 46%. For the same compound, the “sample concentrations provoking erythrocyte lysis, viral HA-assay” value in [10] is recorded as “no”. Further, the “NA inhibition using HA assay MIC, IAV 5258/09” value (“NA inhibition … IAV 5258/09” for short) in [11] worked out at 31.60 ± 0.00 µM. Moreover, the “50% inhibitory concentration, influenza A virus HK/68” value in data set [12] was “Not active”.

With `O=S(=O)(O)c1ccc(/N=N/c2ccc(/N=N/c3c(O)c(S(=O)(=O)O)cc4cc(S(=O)(=O)O)ccc34)cc2)cc1` [Compound 9], in [1], the “NA inhibition … IAV HK/68” value is “Not active”. Besides, the “50% inhibitory concentration, influenza A virus WSN/33” value in [2] is given as “Not active”. The “NA inhibition … S. p. DSM20566” value in [3] is on record as “Not active”. The IC50 in data set [4] stood at 22.7 ± 2.91 µM; in [6] it was 32 ± 10.9 µM. For the same compound, the “50% inhibitory concentration, influenza A virus 8178/09” value in data set [5] is reported as “Not active”. In data set [7], the CC50 is over 100 µM. For the same compound, in data set [8], the “sample concentrations provoking erythrocyte lysis, bacterial HA-assay” value is “no”. Also, the “50% inhibitory concentration, S. pneumoniae DSM20566 biofilm formation” value in [9] (24 h, maximum 50 μM) is listed as “Not active”. Also, the “sample concentrations provoking erythrocyte lysis, viral HA-assay” value in data set [10] is “no”. The “NA inhibition … IAV 5258/09” value in [11] is given as “Not active”. In addition, the “50% inhibitory concentration, influenza A virus HK/68” value in data set [12] is “Not active”. The “50% inhibitory concentration, S. pneumoniae DSM20566 planktonic growth” value in data set [13] is reported as “Not active”.

Consider `Cc1ccccc1/N=N/c1ccc(/N=N/c2c(O)ccc3cc(S(=O)(=O)O)cc(S(=O)(=O)O)c23)c(C)c1` [Compound 5], for which the IC50 came out at 17.8 ± 3.25 µM in data set [1] (NA inhibition using FL assay IC50, IAV HK/68); 0.97 ± 0.3 µM in [6]; 42.2 ± 2.57 µM in data set [9] (Streptococcus pneumoniae, DSM20566, 24 h, maximum 50 μM, read-out: 50% inhibitory concentration, S. pneumoniae DSM20566 biofilm formation). The “50% inhibitory concentration, influenza A virus WSN/33” value in data set [2] is given as “Not active”. For the same compound, the “NA inhibition … S. p. DSM20566” value in [3] was determined as 2.44 ± 1.25 µM. Also, the “50% inhibitory concentration, influenza A virus 8178/09” value in data set [5] is on record as “Not active”. Besides, the CC50 in data set [7] is over 100 µM. For the same compound, the “sample concentrations provoking erythrocyte lysis, bacterial HA-assay” value in data set [8] is recorded as “no”. Also, the “sample concentrations provoking erythrocyte lysis, viral HA-assay” value in [10] is “no”. Moreover, the “NA inhibition … IAV 5258/09” value in [11] was 10.00 ± 0.00 µM. In addition, the “50% inhibitory concentration, influenza A virus HK/68” value in data set [12] was “Not active”. Also, the “50% inhibitory concentration, S. pneumoniae DSM20566 planktonic growth” value in [13] is given as “Not active”.

As for `O=S(=O)(O)c1ccc2c(/N=N/c3ccccc3)c(O)ccc2c1` [Compound 10], the “NA inhibition … IAV HK/68” value in [1] is on record as “Not active”. In addition, in data set [2], the “50% inhibitory concentration, influenza A virus WSN/33” value is reported as “Not active”. Moreover, the “NA inhibition … S. p. DSM20566” value in data set [3] is listed as “Not active^c”. The “NA inhibition using FL assay IC50, IAV WSN/33” value in data set [4] is on record as “Not active”. Besides, in data set [5], the “50% inhibitory concentration, influenza A virus 8178/09” value is on record as “Not active”. For the same compound, in [6], the IC50 is 10.2 ± 1.35 µM. For the same compound, in data set [7], the CC50 was over 100 µM. Moreover, the “sample concentrations provoking erythrocyte lysis, bacterial HA-assay” value in data set [8] is listed as “no”. The “50% inhibitory concentration, S. pneumoniae DSM20566 biofilm formation” value in data set [9] (24 h, maximum 50 μM) is “Not active”. Moreover, the “sample concentrations provoking erythrocyte lysis, viral HA-assay” value in data set [10] was “no”. The “NA inhibition … IAV 5258/09” value in data set [11] is listed as “Not active^c”. In data set [12], the “50% inhibitory concentration, influenza A virus HK/68” value is “Not active”. The “50% inhibitory concentration, S. pneumoniae DSM20566 planktonic growth” value in [13] is reported as “Not active”.
